Data set [1] can be described thus: Absorption and emission spectra of AP site binding probes in ethanol. Type of data set: physicochemical. Here is the method:
(§1) NMR spectra were recorded on a Varian Mercury 300 MHz, a Varian Inova 400, and a Varian Inova 600 MHz spectrometer at room temperature, except where otherwise noted. Chemical shifts for 1H NMR were reported as 6, parts per million, and referenced to CHCl3 at 7.26 ppm or TMS at 0 ppm. Chemical shifts for ^13C NMR were reported as 6 and referenced to the center line of the CDCl3 triplet at 77.0 ppm or CH2Cl2 pentet at 54.0 ppm. Low resolution mass spectra were recorded on a ThermoScientific LCQ Advantage or a Finnigan LCQ Deca mass spectrometer. Fluorescence data were collected on a Varian Cary Eclipse fluorescence spectrophotometer in a quartz cuvette with a 1 cm pathlength or on a Tecan Infinite M200 scanner. Absorbance data were collected on a Varian Cary 50 Bio UV-Visible Spectrophotometer in a quartz cuvette with a 1 cm path length.
To characterize the fluorescent properties, the absorption and emission spectra were collected for all final compounds.

The test system of another data set is DLD1 WT cells. Nature of the data set: MMS treatment, isolation, and Cy7MX analysis of DLD1 DNA. It counts as cell-based. The settings on record: 3 h MMS exposure, 1 h Cy7MX. As to the method:
DLD1 shControl (WT) cells at a density of 3 million cells per dish were plated in Falcon brand 100×20 mm cell culture dishes in 10 mL medium (DMEM supplemented with 10% heat inactivated FBS, penicillin/streptomycin, and nonessential amino acids) and incubated 16 h at 37° C. and 5% CO2 to ensure adhesion. Solutions of MMS were prepared in serum free DMEM medium at concentrations of 0.05, 0.25, 1, 4, and 10 mM. Medium was removed from the cells and replaced with the MMS or a serum free medium vehicle. Three plates were prepared per treatment group. Cells were incubated at 37° C. and 5% CO2 with continuous MMS exposure for 3 h. At the time points, cells were collected and DNA isolated as described above (Treatment of DLD1 cells with FUDR).
Pure DNA pellets were suspended in 190 μL water. A solution of Cy7MX (10 μL, final=25 μM) was added to each sample, keeping the stock solution and all treated samples vigorously in the dark until the final analysis. Samples were incubated with Cy7MX for 1 h at 37° C. in the dark. After incubation, DNA was purified and analyzed as described above.
Methyl methanesulfonate (MMS) is a methylating agent used to induce AP sites in cells. An MMS dose-response in DLD1 WT cells was performed for a 3 h treatment time. […] Fluorescence was measured following ethanol precipitation purification.

Data set [2] in a line: Stability of Cy7MX and Cy7MX-treated samples. Type of data set: physicochemical.
A further data set concerns the target T1, UDG (Escherichia coli, UniProt P12295).
T1 construct: purchased New England BioLabs
In words: SSB activity assay UDG inhibition. Conditions: UDG 10 min pretreatment vs simultaneous UDG and Cy7MX. It counts as biochemical. As to the method: FIG. 8 illustrates the evaluation of UDG inhibition by Cy7MX. Time course represents incubation time of U:A DNA before APE addition with UDG alone, 10 minutes UDG pretreatment then Cy7MX, and UDG and Cy7MX without pretreatment.
Method UDG (10 min)+Cy7MX: All samples were prepared in triplicate.
Method UDG+Cy7MX: All samples were prepared in triplicate. […] Samples were incubated at 37° C. in the dark for 2 min, 10 min, 30 min, 60 min, or 180 min.
Method UDG: As in method UDG+Cy7MX except substitute DMSO (2 μL) for Cy7MX.
Likewise, the potential of Cy7MX to inhibit UDG, either through direct interaction with the enzyme or by binding to DNA and blocking the uracil substrate, was tested. To accomplish this, U:A DNA was incubated with UDG for a fixed time prior to addition of Cy7MX (FIG. 8, UDG (10 min)+Cy7MX). In this case, Cy7MX could not interfere with the activity of UDG.

Data set [3] can be described thus: Fluorescence and absorbance properties of Cy7MX in various solvents (Example 1). Type of data set: physicochemical. As to the method: as §1
Fluorescent quantum yields were determined by a comparative method to an indocyanine green (ICG) standard (Φ=0.132 in EtOH) with refractive index correction according to Equation 1:
[formula] • where Φ is the quantum yield; F is the integrated fluorescence intensity (area); A is the absorbance; n is the refractive index of the solvent (ethanol, 1.3611; acetonitrile, 1.3442; water, 1.333; and chloroform, 1.4459); and R is the reference sample, ICG in EtOH. Sample and reference fluorophores were excited at 700 nm and emission spectra integrated from 705 to 1000 nm and absorption measurements were collected at 700 nm. Data were collected in a quartz cuvette with a 1 cm pathlength. Absorbance maxima for each sample were kept at or below 0.2 absorbance units to avoid inner filter effects. Solvents used were spectroscopic grade ethanol and HPLC grade acetonitrile, HPLC grade chloroform, and HPLC grade water. For the water solution, Cy7MX was first dissolved first in MeCN and diluted at least 200 fold. Synthesis of Compounds for AP Site Detection
Further characterization was conducted for Cy7MX (Table 2), Cy7MX, because it was chosen for extensive investigation in biological studies. The absorption and emission spectra were collected in polar protic (water and ethanol), polar aprotic (acetonitrile), and relatively nonpolar (chloroform) solvents. […] The extinction coefficient and the fluorescence quantum yields for Cy7MX compared favorably to other heptamethine cyanine dyes.

The record followed here is patent US10718028B2, “Fluorescent probes for abasic site detection” (CASE WESTERN RESERVE UIVERSITY, priority 2015, dated 2020).

T1 sequence (P12295 whole entry): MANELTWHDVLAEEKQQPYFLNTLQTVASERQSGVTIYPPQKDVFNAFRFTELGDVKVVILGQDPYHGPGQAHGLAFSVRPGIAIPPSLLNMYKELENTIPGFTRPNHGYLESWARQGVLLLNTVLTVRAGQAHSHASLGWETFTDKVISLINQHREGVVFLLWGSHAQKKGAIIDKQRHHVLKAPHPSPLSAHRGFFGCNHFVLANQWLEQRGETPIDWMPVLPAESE

`CCCN1/C(=C/C=C2\CCCC(/C=C/C3=[N+](CCC)c4ccccc4C3(C)C)=C2Oc2ccc(CC(=O)NCCCON)cc2)C(C)(C)c2ccccc21` [Cy7MX, 2-((E)-2-((E)-2-(4-(2-((3-(aminooxy)propyl)amino)-2-oxoethyl)phenoxy)-3-((E)-2-(3,3-dimethyl-1-propylindolin-2-ylidene)ethylidene)cyclohex-1-en-1-yl)vinyl)-3,3-dimethyl-1-propyl-3H-indol-1-ium 2,2,2-trifluoroacetate]: in data set [1], the Stokes shift stood at 20 nm, the λabs max was found to be 770 nm and the λem max came to 796 nm. Also, the “detection of AP sites in DNA of MMS treated cells” value in the data set on DLD1 WT cells is recorded as “sensitive to the quantity of AP sites induced by mM concentrations of MMS”. Also, the “stability of Cy7MX with MX” value in data set [2] (in the presence of light, MX solutions) is on record as “decompose Cy7MX rapidly”. For the same compound, the “stability of Cy7MX assay samples” value in data set [2] (stored in the dark) was “stable for at least two days”. Further, the UDG inhibition result on UDG is given as “does not inhibit UDG activity”. For the same compound, in data set [3] (CHCl3), the Φ was found to be 32.6%, the λabs is listed as 770 nm and the λem stood at 791 nm. Moreover, in data set [3] (EtOH), the Φ is listed as 36.3%, the ε is 127,000 M^−1cm^−1, the λabs was 770 nm and the λem is listed as 796 nm. In data set [3] (H2O), the Φ is recorded as 6.3%, the ε is on record as 140,000 M^−1cm^−1, the λabs stood at 767 nm and the λem stood at 790 nm. For the same compound, in data set [3] (MeCN), the Φ amounted to 45.9%, the ε is recorded as 154,000 M^−1cm^−1, the λabs stood at 767 nm and the λem stood at 789 nm. The solvatochromism entry in data set [3] (water, ethanol, acetonitrile, chloroform) is given as “No solvatochromism was observed”.
